The test has as its target CK2 (Homo sapiens (Human), UniProt P68400). Briefly: Radiometric CK2 kinase assay. The following applies: compound at 1 μM; ATP 10 μM. The format is biochemical.
Chain of CK2 (P68400 whole entry): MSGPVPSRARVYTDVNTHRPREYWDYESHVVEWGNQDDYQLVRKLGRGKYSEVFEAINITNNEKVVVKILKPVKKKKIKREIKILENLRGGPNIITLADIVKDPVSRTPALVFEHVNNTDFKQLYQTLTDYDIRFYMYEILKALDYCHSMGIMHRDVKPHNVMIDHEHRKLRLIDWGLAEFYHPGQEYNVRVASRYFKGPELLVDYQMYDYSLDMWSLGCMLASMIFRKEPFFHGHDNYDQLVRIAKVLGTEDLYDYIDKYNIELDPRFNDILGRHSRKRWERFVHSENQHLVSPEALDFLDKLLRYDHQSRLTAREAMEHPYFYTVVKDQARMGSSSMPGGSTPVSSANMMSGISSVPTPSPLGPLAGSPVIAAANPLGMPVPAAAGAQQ
As a reminder, the inhibition is the change of the read-out against control, counted positive when it falls. In turn, `COCc1ccccc1-c1ccc(CN2CCC(Cn3cc(-c4c(C(=O)OCC(C)C)[nH]c5ccc(F)cc45)nn3)CC2)cc1Cl` [AB680, Isobutyl 3-(1-((1-((2-chloro-2′-(methoxymethyl)-[1,1′-biphenyl]-4-yl)methyl)piperidin-4-yl)methyl)-1H-1,2,3-triazol-4-yl)-5-fluoro-1H-indole-2-carboxylate] registered an inhibition at 1 µM of 11%.

As for `COCc1ccccc1-c1ccc(C(=O)N2CCC(Cn3cc(-c4c(C(=O)OCC(C)C)[nH]c5ccc(F)cc45)nn3)CC2)cc1Cl` [AB681, Isobutyl 3-(1-((1-(2-chloro-2′-(methoxymethyl)-[1,1′-biphenyl]-4-carbonyl)piperidin-4-yl)methyl)-1H-1,2,3-triazol-4-yl)-5-fluoro-1H-indole-2-carboxylate], the inhibition at 1 µM turned out to be 18%.

`COc1ccccc1-c1ccc(CN2CCC(Cn3cc(-c4c(C(=O)OCC(C)C)[nH]c5ccc(F)cc45)nn3)CC2)cc1Cl` [AB689, Isobutyl 3-(1-((1-((2-chloro-2′-methoxy-[1,1′-biphenyl]-4-yl)methyl)piperidin-4-yl)methyl)-1H-1,2,3-triazol-4-yl)-5-fluoro-1H-indole-2-carboxylate] displayed an inhibition at 1 µM of 6%.

`CC(C)COC(=O)c1[nH]c2ccc(F)cc2c1-c1cn(CC2CCN(Cc3ccc(-c4cccc5[nH]ccc45)c(Cl)c3)CC2)nn1` [AB690, Isobutyl 3-(1-((1-(3-chloro-4-(1H-indol-4-yl)benzyl)piperidin-4-yl)methyl)-1H-1,2,3-triazol-4-yl)-5-fluoro-1H-indole-2-carboxylate]: the inhibition at 1 µM was determined as 31%.

On to `CC(C)COC(=O)c1[nH]c2ccc(F)cc2c1-c1cn(CC2CCN(Cc3ccc(Oc4ccccc4)c(Cl)c3)CC2)nn1` [AB691, Isobutyl 3-(1-((1-(3-chloro-4-phenoxybenzyl)piperidin-4-yl)methyl)-1H-1,2,3-triazol-4-yl)-5-fluoro-1H-indole-2-carboxylate], for which the inhibition at 1 µM turned out to be 3%.

Turning to `COc1ccc(C)cc1-c1ccc(CN2CCC(Cn3cc(-c4c(C(=O)OCC(C)C)[nH]c5ccc(F)cc45)nn3)CC2)cc1Cl` [AB692], the inhibition at 1 µM turned out to be 5%.

The molecule `CC(C)COC(=O)c1[nH]c2ccc(F)cc2c1-c1cn(CC2CCN(Cc3ccc(Oc4ccccc4)c(C(C)C)c3)CC2)nn1` [AB697, Isobutyl 5-fluoro-3-(1-((1-(3-isopropyl-4-phenoxybenzyl)piperidin-4-yl)methyl)-1H-1,2,3-triazol-4-yl)-1H-indole-2-carboxylate] displayed an inhibition at 1 µM of 16%.

`CC(C)COC(=O)c1[nH]c2ccc(F)cc2c1-c1cn(CC2CCN(Cc3ccc(-c4cccc5[nH]ccc45)c(C(C)C)c3)CC2)nn1` [AB703, Isobutyl 3-(1-((1-(4-(1H-indol-4-yl)-3-isopropylbenzyl)piperidin-4-yl)methyl)-1H-1,2,3-triazol-4-yl)-5-fluoro-1H-indole-2-carboxylate] gave an inhibition at 1 µM of 8%.

Molecule `COCc1ccccc1-c1ccc(CN2CCC(Cn3cc(-c4c(C(=O)OCC(C)C)[nH]c5ccc(F)cc45)nn3)CC2)cc1C(C)C` [AB704] returned an inhibition at 1 µM of 21%.

For the molecule `CC(C)COC(=O)c1[nH]c2ccc(F)cc2c1-c1cn(CC2CCN(Cc3ccc(Oc4cccc(C(C)C)c4)c(C(C)C)c3)CC2)nn1` [AB713, Isobutyl 5-fluoro-3-(1-((1-(3-isopropyl-4-(3-isopropylphenoxy)benzyl)piperidin-4-yl)methyl)-1H-1,2,3-triazol-4-yl)-1H-indole-2-carboxylate], the inhibition at 1 µM was found to be 5%.

In turn, `CC(C)COC(=O)c1[nH]c2ccc(F)cc2c1-c1cn(CC2CCN(Cc3ccc(Oc4ccc5c(c4)CCO5)c(C(C)C)c3)CC2)nn1` [AB717, Isobutyl 3-(1-((1-(4-((2,3-dihydrobenzofuran-5-yl)oxy)-3-isopropylbenzyl)piperidin-4-yl)methyl)-1H-1,2,3-triazol-4-yl)-5-fluoro-1H-indole-2-carboxylate] had an inhibition at 1 µM of 2%.
